This passage reports IC50 results from ChEMBL document CHEMBL2440105, “Synthesis and anti-parasitic activity of a novel quinolinone-chalcone series” (Bioorg Med Chem Lett, 2013).

In general, IC50 refers to the concentration that gives 50% inhibition.

Assay [1] has as its system THP-1. Description: Cytotoxicity against human THP1 cells after 72 hrs by MTT assay. The class given is cell-based. The settings on record: THP-1, 72 h. A general note: Tetrazolium assays rely on reduction of a dye to a coloured formazan, in cell work by metabolically active cells.
Another assay concerns Leishmania infantum. Description: Antileishmanial activity against Leishmania infantum MOM/MA671TMAP263 axenic amastigotes infected in THP1 cells after 72 hrs by luciferase reporter gene assay. In kind it is functional, organism-based. The settings on record: MOM/MA671TMAP263, THP-1, 72 h.
Assay [2] deals with Trypanosoma brucei brucei. Nature of the assay: Trypanocidal activity against bloodstream forms of Trypanosoma brucei brucei Lister 427 clone 221a after 72 hrs by AlamarBlue assay. In kind it is functional, organism-based. (In general: The colour change of resazurin is a common sign of viable cells or microbes.)
In assay [3] the test system is THP-1. Description: Cytotoxicity against human THP1 cells by AlamarBlue assay.

For `COc1ccc(/C=C/C(=O)c2c(O)c3ccccc3n(Cc3ccccc3)c2=O)cc1OC`, the 50% inhibitory concentration (IC50) is 28.7 µM in the assay on THP-1 [1], > 25 µM in the assay with Leishmania infantum and 5.68 µM in assay [2].
Consider `COc1ccc(C2CC(c3c(O)c4ccccc4[nH]c3=O)=NN2c2ccccc2)cc1OC` (stereo not drawn), for which the figures for the concentration for half-maximal inhibition (IC50) (in the assay with THP-1 [1]; in the assay on Leishmania infantum; in assay [2]) were > 50 µM, 13.5 µM and 1.46 µM, respectively.
As for `CC(=O)N1N=C(c2c(O)c3ccccc3[nH]c2=O)CC1c1ccccc1C` (stereo not drawn), the half-maximal inhibitory concentration (IC50) was 4.15 µM with THP-1 [1], 0.71 µM in the assay with Leishmania infantum and 1.43 µM in assay [2].
Take `Cc1ccc(/C=C/C(=O)c2c(O)c3ccccc3[nH]c2=O)cc1`: the IC50 in the assay with THP-1 [1] was > 50 µM; with Leishmania infantum, 2.1 µM; in assay [2] it was > 10 µM.
On the same counts, the results for `Cc1ccccc1/C=C/C(=O)c1c(O)c2ccccc2[nH]c1=O` are > 50 µM, > 50 µM and 2.6 µM.
On the same counts, the results for `COc1cc(/C=C/C(=O)c2c(O)c3ccccc3[nH]c2=O)ccc1O` are 23.3 µM, 11.5 µM and 4.9 µM.
With `COc1cccc(/C=C/C(=O)c2c(O)c3ccccc3[nH]c2=O)c1`, the IC50 in the assay on THP-1 [1] is 38.5 µM; with Leishmania infantum it was 28.4 µM; in assay [2], 6.5 µM.
With `COc1ccc(/C=C/C(=O)c2c(O)c3ccccc3[nH]c2=O)cc1`, the IC50 was > 50 µM in the assay with THP-1 [1], 12.7 µM with Leishmania infantum and > 10 µM in assay [2].
The corresponding values for `COc1ccc(/C=C/C(=O)c2c(O)c3ccccc3[nH]c2=O)cc1OC` are > 50 µM, 7.5 µM and 4.9 µM.
The corresponding values for `CC(C)(C)c1cc(/C=C/C(=O)c2c(O)c3ccccc3[nH]c2=O)cc(C(C)(C)C)c1O` are 26.2 µM, 1.3 µM and 3.3 µM.
As for `O=C(/C=C/c1ccc(C(F)(F)F)cc1)c1c(O)c2ccccc2[nH]c1=O`, the IC50 in the assay with THP-1 [1] was > 50 µM; in the assay on Leishmania infantum, 3.1 µM; in assay [2], > 10 µM.
With `O=C(/C=C/c1ccc([N+](=O)[O-])cc1)c1c(O)c2ccccc2[nH]c1=O`, the values for the IC50 (with THP-1 [1]; in the assay on Leishmania infantum; in assay [2]) were > 50 µM, 26.9 µM and > 10 µM, respectively.
On the same counts, the results for `O=C(O)c1ccc(/C=C/C(=O)c2c(O)c3ccccc3[nH]c2=O)cc1` are > 50 µM, 18.4 µM and > 10 µM.
The corresponding values for `O=C(/C=C/C=C/c1ccccc1)c1c(O)c2ccccc2[nH]c1=O` are > 50 µM, > 50 µM and > 10 µM.
On the same counts, the results for `CC(/C=C/C(=O)c1c(O)c2ccccc2[nH]c1=O)=C\c1ccccc1` are > 50 µM, 20 µM and > 10 µM.
In the case of `CCn1c(=O)c(C(=O)/C=C/c2ccccc2C)c(O)c2ccccc21`, the IC50 in the assay on THP-1 [1] is > 50 µM; in the assay with Leishmania infantum, 24.8 µM; in assay [2], > 10 µM.
On the same counts, the results for `CCn1c(=O)c(C(=O)/C=C/c2ccc(OC)c(OC)c2)c(O)c2ccccc21` are > 50 µM, > 50 µM and > 10 µM.
The corresponding values for `Cc1ccccc1/C=C/C(=O)c1c(O)c2ccccc2n(Cc2ccccc2)c1=O` are 45.7 µM, > 25 µM and 6.17 µM.
As to `C[C@@H]1[C@H](O)[C@@H](C)/C=C/C=C/C=C/C=C/C=C/C=C/C=C/[C@H](O[C@@H]2O[C@H](C)[C@@H](O)[C@H](N)[C@@H]2O)C[C@@H]2O[C@](O)(C[C@@H](O)C[C@@H](O)[C@H](O)CC[C@@H](O)C[C@@H](O)CC(=O)O[C@H]1C)C[C@H](O)[C@H]2C(=O)O` [AMPHOTERICIN B], the half-maximal inhibitory concentration (IC50) in the assay with THP-1 [1] amounted to 23.8 µM; in the assay with Leishmania infantum, 1.2 µM.
Regarding `CC1CS(=O)(=O)CCN1/N=C/c1ccc([N+](=O)[O-])o1` (stereo not drawn) [NIFURTIMOX], the results for the half-inhibitory concentration (IC50) (with THP-1 [3]; in assay [2]) were > 100 µM and 2.9 µM, respectively.
